Residues, ends and D or L forms follow the SMILES beside them. *: point of attachment. NHPh = c1ccc(N*)cc1
Biological target: T1, FGF13/Nav1.7M1830A complex (Homo sapiens, UniProt Q15858+Q92913, M1830A)
T1 construct: Full-length FGF13-1b (aa 1-192) was subcloned into appropriate plasmids; Nav1.7 residues 1780-1977; expressed in transfected cells; host or cells: HEK293 (inferred; the LCA paragraph only says 'cells')
Test: LCA, CLuc-FGF13/CD4-Nav1.7M1830A-NLuc
Assay type: cell-based
Conditions: ZL192 50 μM
Excerpt: The respective gene ID numbers used in this study are as follows: NM_033642 (human, FGF13-1b) and NM_002977 (human SCN9A). Full-length FGF13-1b (aa 1-192) was subcloned into appropriate plasmids for use in this investigation, unless otherwise noted. For consistency with AlphaFold modeling presented, numbering of point mutations to FGF13-1b are based on the longest FGF13 isoform (FGF13-1a, NM_004114.2). CLuc-FGF13, […]
and constructs expressing the CLuc or the NLuc fragments of Firefly ( Photinus pyralis) luciferase (24) respectively were engineered, mutated (CLuc-FGF13R110A) and sequenced at the Molecular Genomics Core (University of Texas Medical Branch). […]
Twenty-four hours post transfection, cells were trypsinized using TrypLE (Gibco; cat # 12604013), centrifuged at 1750 rpm for 5 min, triturated in medium, and seeded into white clear-bottom 96-well CELLSTAR µClear® plates (Greiner Bio -One; cat # 655073 ) at ~0.8 x 10^5 cells per well in 200 µl of medium. […] The bioluminescence reaction was initiated by injection of 100 μl of D -luciferin substrate (1.5 mg/ml dissolved in PBS) using a Synergy H4 multimode microplate reader (BioTek). Luminescence readings were initiated after 3 s of mild plate shaking and performed at 2 min intervals for 20-30 min with integration times of 0.5 s, and the c ells were maintained throughout the measurements at 37 °C. […]

T1 sequence (Q92913 1-192 isoform Q92913-2, stated change not applied): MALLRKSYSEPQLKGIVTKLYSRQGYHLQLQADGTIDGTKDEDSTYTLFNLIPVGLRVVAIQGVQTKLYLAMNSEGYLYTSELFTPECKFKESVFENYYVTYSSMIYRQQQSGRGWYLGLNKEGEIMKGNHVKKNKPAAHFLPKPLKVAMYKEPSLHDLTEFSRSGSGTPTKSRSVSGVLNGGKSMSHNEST
T1 sequence (Q15858 1791-1988 M1830A): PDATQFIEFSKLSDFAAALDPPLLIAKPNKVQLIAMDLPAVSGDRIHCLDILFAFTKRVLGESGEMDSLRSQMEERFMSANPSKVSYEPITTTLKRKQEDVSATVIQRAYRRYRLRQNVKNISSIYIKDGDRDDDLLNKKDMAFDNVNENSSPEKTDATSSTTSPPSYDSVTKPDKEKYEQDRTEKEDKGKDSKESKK

CC(=O)N[C@@H](Cc1ccccc1)C(=O)N[C@@H](CC(C)C)C(=O)N1CCC[C@H]1C(=O)N[C@@H](CCCCN)C(=O)Nc1ccccc1 [ZL192] (Ac-FLPK-NHPh)
agonist activity against the FGF13/Nav1.7M1830A complex: no agonist activity

— PMC12259270, “Sensory neuron–expressed FGF13 controls nociceptive signaling in diabetic neuropathy models” (The Journal of Clinical Investigation, 2025)
